Results on two compounds are retold here after patent US10502742B2, “Flourescent exomarker probes for hydrogen sulfide detection” (AMRITA VISHWA VIDYAPEETHAM, priority 2017, dated 2019).

Data set [1] can be described thus: Fluorescence response of Mito-HS to variable concentrations of Na2S (H2S) in PBS. Here is the method:
UV-Vis and fluorescence spectroscopy was studied and changes of Mito-HS was recorded in variable concentrations of Na2S (0-200 μM) in PBS buffer solution containing 0.2% of DMSO at physiological pH (pH 7.4) to study the performance of the probe in H2S (Na2S) environment as shown in FIG. 3A-C. In FIG. 3A, the UV-Vis absorption band at λab 370 nm gradually decreases with the appearance of a new absorption band at λab 395 nm in the presence of variable concentrations of H2S.

Data set [2] is described as follows: Time-dependent fluorescence of Mito-HS in the presence of H2S. Particulars: H2S (20.0 eq.). As for the experimental part: The environment of biological entities in cellular milieu is temporal, henceforth, the response time of probe for an analyte is crucial. Thus, time-dependent fluorescence data at λmax 450 nm were recorded in the presence of H2S (20.0 eq.). […] The rate of reaction of Mito-HS with H2S was calculated to be 5.4×10^−3 s^−1.

Data set [3] is described as follows: Selectivity: fluorescence responses in the presence of biologically important analytes. Conditions: Mito-HS 5 μM; PBS, 0.2% DMSO, pH 7.4, 37° C.; excitation 380 nm. Here is the method: Fluorescence responses of Mito-HS (5 μM) in the presence of various biologically important analytes such as H2S, cysteine (Cys), H2O2, NaNO2, Cu(OAc)2, Zn(OAc)2, FeSO4, FeCl3, Na2CO3, GSH, and ascorbic acid (AA) NO, Na2S2O4 in aqueous solutions (in PBS, 0.2% DMSO, pH=7.4) at 37° C. were studied as shown in FIG. 5. Excitation wavelength was set at 380 nm and excitation and emission slit widths both set at 3 nm. Error bars were obtained from triplet experimental data. […] So, the experiment supported the proposed concept of using Mito-HS to track cellular H2S over other competing substances such as thiols.

Data set [4] in a line: Physiological pH stability study by fluorescence spectrometry. The data set is classed as physicochemical. From the text:
The stability and reactivity of Mito-HS toward H2S in various physiological pH was studied in fluorescence spectrometry as shown in FIG. 6.

The nature of data set [5]: Detection of H2S in blood serum by fluorescence spectroscopy. Particulars: fetal bovine serum (0.45 mM albumin protein), 37° C.; ex 380 nm, em 450 nm. Here is the method:
Fluorescence spectroscopy was performed for Mito-HS in fetal bovine serum at 37° C. Excitation and emission wavelengths were set at 380 nm and 450 nm respectively and slit widths at 3 nm.

Data set [6] concerns DU145 cells. The data set is described as follows: In vitro cytotoxicity, MTT assay. The data set is classed as cell-based, Human. Conditions: 48 h incubation. Here is the method: (§1) Human cervical cancer cells (HeLa), breast cancer cells (MDA-MB-231), prostate cancer cells (DU 145) and 3T3-L1 fibroblast cells were cultured in DMEM high glucose media supplemented with 10% fetal bovine serum, 1% Penstrep, 0.2% Amphotericin B. The cells were grown overnight at 37° C. incubator with 5% CO2. HeLa, MDA-MB-231, DU 145, and 3T3-L1 cells were seeded at a density of 0.3×10^6 cells in 35 mm dish and kept overnight. The probe Mito-HS prepared in Example 1 was dissolved in 0.2% DMSO to make a stock concentration of 10 mM. The cells were treated with 5 μM of Mito-HS for 15 min. 300-550 nm excitation light was used to measure its fluorescence properties. Images were acquired using Zeiss Fluorescence Microscope (A1 Axiovert) with ×40 objective lens.
(§2) Prior to the application of probe in vitro, cytotoxicity study was performed to check its biocompatibility. HeLa, MDA-MB-231 and DU145 cells were considered to assess the cytotoxicity of Mito-HS by conventional MTT assay. The cells were treated with Mito-HS and incubated for 48 h.
Background: Formazan colour is commonly taken as a measure of viable cells.

For data set [7], the system named is HeLa cells. Briefly: In vitro cytotoxicity, MTT assay. The format is cell-based, Human. Particulars: 48 h incubation. As for the experimental part:
as §1, §2

For data set [8], the system named is MDA-MB-231 cells. Briefly: In vitro cytotoxicity, MTT assay. Particulars: MDA-MB-231, MTT, 48 h incubation. The format is cell-based, Human. Here is the method: as §1, §2
Data set [9] can be described thus: Determination of fluorescence quantum yield. The data set is classed as physicochemical. Particulars: PBS 10 mM, pH 7.4, quinine standard. As for the experimental part: The fluorescence quantum yield of Mito-HS was determined in the presence and absence of H2S in PBS buffer solution of 10 mM concentration and in the physiological pH of 7.4 taking quinine (ΦX=0.542) as standard. The fluorescence quantum yield was calculated by the equation: ΦS=ΦX (ASFS/AXFX), where, AS and AX are the absorbance of the sample and the reference, respectively; at the same excitation wavelength, FS and FX are the corresponding relative integrated fluorescence intensities. The quantum yield for Mito-HS calculated to be 0.045 was increased to 0.479 due to formation of FL-1 in the presence of H2S.

For data set [10], the system named is DU145 cells. The data set is described as follows: Fluorescence microscopy of endogenous H2S in cells. The data set is classed as cell-based, Human. Here is the method: as §1
(§3) Fluorescence microscopic study was performed for Mito-HS treated and untreated cancer cells (HeLa, MDA-MB-231 and DU145 cells) and normal cell (3T3-L1 cells) by illuminating lights of 390 nm as excitation wavelength and monitoring the emission over 440-500 nm range. […] In contrast, Mito-HS pretreated normal cells were remained non-fluorescent under similar conditions even after an hour. The insufficient production of H2S in 3T3-L1 cells was responsible for their non-fluorescent images.
(§4) To assure that the fluorescence image of the Mito-HS treated cells were solely due to production of endogenous H2S instead of any other endogenous thiol-like entities such as GSH, cysteine and homocysteine, HeLa, MDA-MB-231 and DU145 cells were pretreated with a thiol-masking agent, here N-ethyl maleimide (NEM).

Data set [11] has as its system HeLa cells. The data set is described as follows: Fluorescence microscopy of endogenous H2S in cells. The format is cell-based, Human. As for the experimental part:
as §1, §3, §4

The subject of data set [12] is MDA-MB-231 cells. The data set is described as follows: Fluorescence microscopy of endogenous H2S in cells. The format is cell-based, Human. Here is the method:
as §1, §3, §4

For data set [13], the system named is 3T3-L1 cells. The data set is described as follows: Fluorescence microscopy of endogenous H2S in cells. Conditions: 3T3-L1 normal cells, similar conditions, even after an hour. The format is cell-based. As for the experimental part: as §1, §3
Data set [14] relates to mitochondria of DU145 cells. Briefly: Co-localization experiment with MitoSox Red. The format is cell-based, Human. Here is the method: (§5) In order to evaluate the mito-targeting nature of Triphenylphosphonium ion of Mito-HS, a co-localization experiment was carried out with MitoSox Red, which is a mitochondria targeting dye, to make a comparison study.
In data set [15] the test system is mitochondria of HeLa cells. Briefly: Co-localization experiment with MitoSox Red. The data set is classed as cell-based, Human. As for the experimental part: as §5
The subject of data set [16] is mitochondria of MDA MB 231 cells. The data set is described as follows: Co-localization experiment with MitoSox Red. The format is cell-based, Human. As for the experimental part:
as §5

For data set [17] the following is noted: reference standard value; cited from earlier work.

Take `[N-]=[N+]=Nc1ccc2cc(C(=O)NCC[P+](c3ccccc3)(c3ccccc3)c3ccccc3)c(=O)oc2c1` [Mito-HS]: the “H2S concentration at fluorescence saturation point” value in data set [1] (H2S 0-200 μM added, λmax 450 nm) is 200 µM. In addition, in [1] (H2S 200 μM, λmax 450 nm, PBS pH 7.4, 0.2% DMSO), the “fluorescence intensity increase in the presence of H2S” value is around 43 fold. In addition, in [1] (PBS pH 7.4, 0.2% DMSO), the “H2S concentration range detectable (physiological condition)” value is 10-600 μM. Further, in data set [1] (calculated by applying regression equation), the “lower detection limit for H2S” value was 24.3 nM. In [2] (fluorescence at λmax 450 nm), the “rate of reaction of Mito-HS with H2S” value worked out at 0.0054 s⁻¹. The “time at which fluorescence intensity plateaued” value in data set [2] (λmax 450 nm) is above 40 min. Besides, the “fluorescence change with analytes other than H2S” value in [3] was “none of the analytes showed considerable fluorescence change other than H2S”. Also, the “fluorescence intensity toward H2S at various pH” value in data set [4] (in H2S environment, pH 4-9) is listed as “high fluorescence intensity was observed in H2S environment with sharp depreciation in lower pH range”. For the same compound, the “pH range in which stable” value in data set [4] (in absence of H2S, fluorescence spectrometry) is reported as 4-9. For the same compound, in [5], the “increase of fluorescence intensity in blood serum” value stood at 30 fold. Besides, the “cytotoxicity (cell viability)” value in data set [6], in data set [7] and in data set [8] was “did not show cytotoxic behavior” throughout. In addition, the fluorescence quantum yield in data set [9] (absence of H2S) is 0.045; in data set [9] (presence of H2S (formation of FL-1)) it was 0.479. In addition, the cell fluorescence image entry in data set [10] (DU145, Mito-HS 5.0 μM, ex 390 nm, em 440-500 nm) is “strong fluorescence”; in data set [11] (Mito-HS 5.0 μM, ex 390 nm, em 440-500 nm), “strong fluorescence”; in data set [12] (MDA-MB-231, Mito-HS 5.0 μM, ex 390 nm, em 440-500 nm) it was “strong fluorescence”; in data set [13] it was “non-fluorescent”. Moreover, the “cell fluorescence after pretreatment with thiol-masking agent NEM” value in [10] (DU145, NEM pretreated) is reported as “equally fluorescent labeled”; in data set [11] (NEM pretreated vs NEM untreated), “equally fluorescent labeled”; in data set [12] (MDA-MB-231, NEM pretreated) it was “equally fluorescent labeled”. Also, the subcellular localization entry in data set [14], in data set [15] and in data set [16] was “predominantly in mitochondria” each time.

Take `C=C[C@H]1C[N@@]2CC[C@H]1C[C@H]2[C@H](O)c1ccnc2ccc(OC)cc12` [quinine]: the “fluorescence quantum yield of standard (ΦX)” value in data set [17] is reported as 0.542.
